Measurements published in ChEMBL document CHEMBL1212782, “Mutasynthesis of lincomycin derivatives with activity against drug-resistant staphylococci” (2010).
Values after ≈ are worked out from the molar mass of the structure shown.

Key:
[1] = tested on: Staphylococcus epidermidis; assay: Antimicrobial activity against erythromycin, inducible lincomycin, inducible clindamycin resistant Staphylococcus epidermidis isolate 32PL harboring ermC gene incubated at 37 degC for 24 hrs by agar dilution method
[2] = tested on: Staphylococcus epidermidis; assay: Antimicrobial activity against lincomycin resistant Staphylococcus epidermidis isolate 102OL harboring lnuA gene incubated at 37 degC for 24 hrs by agar dilution method
[3] = tested on: Staphylococcus haemolyticus; assay: Antimicrobial activity against lincomycin resistant Staphylococcus haemolyticus isolate 123PL harboring lnuA gene incubated at 37 degC for 24 hrs by agar dilution method
[4] = tested on: Staphylococcus haemolyticus; assay: Antimicrobial activity against erythromycin resistant Staphylococcus haemolyticus isolate 202BB harboring msrA gene incubated at 37 degC for 24 hrs by agar dilution method
[5] = tested on: Staphylococcus epidermidis; assay: Antimicrobial activity against erythromycin, lincomycin, clindamycin resistant Staphylococcus epidermidis isolate 1036UL harboring ermC vgaALC gene incubated at 37 degC for 24 hrs by agar dilution method
[6] = tested on: Staphylococcus haemolyticus; assay: Antimicrobial activity against erythromycin, lincomycin, clindamycin resistant Staphylococcus haemolyticus isolate 65OL harboring ermC vgaALC gene incubated at 37 degC for 24 hrs by agar dilution method
[7] = tested on: Staphylococcus haemolyticus; assay: Antimicrobial activity against erythromycin, lincomycin, clindamycin resistant Staphylococcus haemolyticus isolate 134PL harboring ermC gene incubated at 37 degC for 24 hrs by agar dilution method
[8] = tested on: Staphylococcus epidermidis; assay: Antimicrobial activity against erythromycin resistant Staphylococcus epidermidis isolate 129OV harboring msrA gene incubated at 37 degC for 24 hrs by agar dilution method
[9] = tested on: Staphylococcus aureus; assay: Antimicrobial activity against Staphylococcus aureus ATCC 29213 incubated at 37 degC for 24 hrs by agar dilution method; conditions: ATCC 29213, 24 h
[10] = tested on: Staphylococcus aureus; assay: Antimicrobial activity against Staphylococcus aureus isolate CIP 107907 harboring vgaA gene incubated at 37 degC for 24 hrs by agar dilution method; conditions: isolate CIP 107907, 24 h
[11] = tested on: Staphylococcus haemolyticus; assay: Antimicrobial activity against erythromycin, lincomycin resistant Staphylococcus haemolyticus isolate 113OL harboring msrA lnuA gene incubated at 37 degC for 24 hrs by agar dilution method
[12] = tested on: Staphylococcus epidermidis; assay: Antimicrobial activity against erythromycin, lincomycin, clindamycin resistant Staphylococcus epidermidis isolate 44KR harboring ermC gene incubated at 37 degC for 24 hrs by agar dilution method
[13] = tested on: Staphylococcus haemolyticus; assay: Antimicrobial activity against lincomycin, clindamycin resistant Staphylococcus haemolyticus isolate 29OL harboring vgaALC gene incubated at 37 degC for 24 hrs by agar dilution method
[14] = tested on: Staphylococcus haemolyticus; assay: Antimicrobial activity against erythromycin, inducible lincomycin, inducible clindamycin resistant Staphylococcus haemolyticus isolate 31UL harboring ermC gene incubated at 37 degC for 24 hrs by agar dilution method
[15] = tested on: Staphylococcus epidermidis; assay: Antimicrobial activity against erythromycin, lincomycin, clindamycin resistant Staphylococcus epidermidis isolate 32OL harboring msrA lnuA vgaALC gene incubated at 37 degC for 24 hrs by agar dilution method

`CCCCC[C@@H]1C[C@@H](C(=O)N[C@@H]([C@H]2O[C@H](SC)[C@H](O)[C@@H](O)[C@H]2O)[C@@H](C)O)N(C)C1` gave an MIC [1] of 0.25 µg/mL (≈ 0.575 µM), an MIC [2] of 2 µg/mL (≈ 4.6 µM) and an MIC [3] of 8 µg/mL (≈ 18.4 µM). The MIC [4] was 0.25 µg/mL (≈ 0.575 µM), the MIC [5] was 64 µg/mL (≈ 147 µM) and the MIC [6] was 128 µg/mL (≈ 295 µM). For the same compound, the MIC [7] was 32 µg/mL (≈ 73.6 µM), the MIC [8] was 0.25 µg/mL (≈ 0.575 µM) and the MIC [9] was 0.25 µg/mL (≈ 0.575 µM). For the same compound, the MIC [10] was 0.5 µg/mL (≈ 1.15 µM), the MIC [11] was 8 µg/mL (≈ 18.4 µM) and the MIC [12] was 64 µg/mL (≈ 147 µM). The MIC [13] was 32 µg/mL (≈ 73.6 µM), the MIC [14] was 0.5 µg/mL (≈ 1.15 µM) and the MIC [15] was 64 µg/mL (≈ 147 µM).
For `CCC[C@@H]1C[C@@H](C(=O)N[C@@H]([C@H]2O[C@H](SC)[C@H](O)[C@@H](O)[C@H]2O)[C@H](C)Cl)N(C)C1` [CLINDAMYCIN], the MIC [1] was 0.125 µg/mL (≈ 0.294 µM), the MIC [2] was 1 µg/mL (≈ 2.35 µM) and the MIC [3] was 2 µg/mL (≈ 4.71 µM). The MIC [4] was 0.125 µg/mL (≈ 0.294 µM), the MIC [5] was over 16 µg/mL and the MIC [6] was 4 µg/mL (≈ 9.41 µM). The MIC [7] was over 16 µg/mL, the MIC [8] was 0.25 µg/mL (≈ 0.588 µM) and the MIC [9] was 0.125 µg/mL (≈ 0.294 µM). It also gave an MIC [10] of 0.25 µg/mL (≈ 0.588 µM), an MIC [11] of 1 µg/mL (≈ 2.35 µM) and an MIC [12] of over 16 µg/mL. For the same compound, the MIC [13] was 16 µg/mL (≈ 37.6 µM), the MIC [14] was 0.5 µg/mL (≈ 1.18 µM) and the MIC [15] was 16 µg/mL (≈ 37.6 µM).
With `CCC[C@@H]1C[C@@H](C(=O)N[C@@H]([C@H]2O[C@H](SC)[C@H](O)[C@@H](O)[C@H]2O)[C@@H](C)O)N(C)C1` [LINCOMYCIN] the MIC [1] was 1 µg/mL (≈ 2.46 µM), the MIC [2] was 64 µg/mL (≈ 157 µM) and the MIC [3] was 128 µg/mL (≈ 315 µM). It also gave an MIC [4] of 1 µg/mL (≈ 2.46 µM), an MIC [5] of over 256 µg/mL and an MIC [6] of 128 µg/mL (≈ 315 µM). The MIC [7] was 32 µg/mL (≈ 78.7 µM), the MIC [8] was 1 µg/mL (≈ 2.46 µM) and the MIC [9] was 1 µg/mL (≈ 2.46 µM). The MIC [10] was 4 µg/mL (≈ 9.84 µM), the MIC [11] was 128 µg/mL (≈ 315 µM) and the MIC [12] was 64 µg/mL (≈ 157 µM). For the same compound, the MIC [13] was 64 µg/mL (≈ 157 µM), the MIC [14] was 1 µg/mL (≈ 2.46 µM) and the MIC [15] was over 256 µg/mL.
